A short description of this series: Cyclic voltammetry, redox potentials. The class given is physicochemical. As to conditions: dichloromethane at 22° C. versus Fc. From the text:
Without being bound by theory, it is believed that the observed photochemical reaction with long wavelength light is not the result of intramolecular energy transfer from the porphyrin to the pyrazoline because estimations indicate that it would be an extremely endothermic process. With respect to the possibility that a photoinduced electron transfer may be responsible, it is first noted that there is no precedence for this reaction with pyrazolines. If the porphyrin and pyrazoline are considered as separate molecules, however, the estimation of the feasibility of an electron transfer process may be conducted as follows. Generally, a photochemical electron transfer occurs only when it is exergonic or <5 kcal mol^−1 endergonic (Eberson, L. Electron Transfer Reactions in Organic Chemistry, Springer-Verlag: Berlin Germany, 1987). The free energy change for a photoinduced electron transfer can be determined from the oxidation potential of the electron donor (E°D), the reduction potential of the electron acceptor (E°A) and the excited state energy of the sensitizer (E0,0), using the relationship ΔGET=23.06 kcal mol^−1[(E°D−E°A)−E0,0]−C; where C is a term that accounts for solvation. In order to estimate the feasibility of electron transfer using this relationship, the redox properties of the molecules must be known. The starting materials MePPP (18), the pyrazoline (19), and the photoproduct cyclopropane (20) have reduction and oxidation potentials as shown in Table 2.
The radical anions and dianions are therefore stable on the time scale of these experiments, with no chemistry occurring on addition of electrons to these molecules. If any chemical reactions were occurring from the radical anion or dianion, the CV's would be irreversible. […] On reduction, two consecutive electrons are accepted by the porphyrin macrocycle in each of 18, 19 and 20. The oxidations are also reversible; the only notable feature of the oxidation potentials is that 19 and 20 are somewhat easier to oxidize than MePPP. […]

For `C=Cc1c(C)c2cc3nc(c4c5[nH]c(cc6nc(cc1[nH]2)C(C)=C6CC)c(C)c5C(=O)C4)C(CCC(=O)OC)C3C` (stereo not drawn) [Compound 18, Methylpyropheophorbide], the “Oxidation 1 (redox potential)” value is 0.61, the “Reduction 1 (redox potential)” value is on record as −1.47 and the “Reduction 2 (redox potential)” value is reported as −1.73.

These data come from US6894161B2, “Methods and compositions for photo-cross linking photoactive compounds to target tissue” (The University of British Columbia, priority 2001, dated 2005).
